# Laboratory results as given in PubChem BioAssay AID328 (DTP/NCI, 2004).
# Where “and” joins values, the source holds several entries; their conditions need not be identical. Equal values may be shown once. Toxic doses and inconclusive results are not listed.
# Tested on: BDF1 mice, P388 leukemia ip, median survival T/C
# Test: NCI In Vivo Anticancer Drug Screen. Data for tumor model P388 Leukemia (intraperitoneal) in B6D2F1 (BDF1) mice
# Details: endpoint: median survival time, higher = longer survival
# In short: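 Each value expresses how treatment altered survival: treated-mouse outcome over vehicle-mouse outcome, both groups bearing the transplanted tumour.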
# [1] = dose: 100.0 mg/kg/injection, schedule: Q04DX003 (ip), vehicle: saline with Tween-80
# [2] = dose: 200.0 mg/kg/injection, schedule: Q04DX003 (ip), vehicle: saline with Tween-80
# [3] = dose: 12.5 mg/kg/injection, schedule: Q01DX009 (ip), vehicle: saline
# [4] = dose: 25.0 mg/kg/injection, schedule: Q01DX009 (ip), vehicle: saline
# [5] = dose: 50.0 mg/kg/injection, schedule: Q01DX009 (ip), vehicle: saline
# [6] = dose: 50.0 mg/kg/injection, schedule: Q04DX003 (ip), vehicle: water
# [7] = dose: 100.0 mg/kg/injection, schedule: Q04DX003 (ip), vehicle: water
compound,measurement,setting,value
CC(=O)OC1CCC2(C)C(CCC3(C)C2CCC2C4C5OC(=O)C4(CCC5(C)C)CCC23C)C1(C)C (stereo unspecified),T/C,"dose: 10.0 mg/kg/injection, schedule: Q01DX009 (ip), vehicle: Klucel (hydroxypropylcellulose) (HPC)",105 % of control
same,T/C,"dose: 20.0 mg/kg/injection, schedule: Q01DX009 (ip), vehicle: Klucel (hydroxypropylcellulose) (HPC)",114 % of control
same,T/C,"dose: 40.0 mg/kg/injection, schedule: Q01DX009 (ip), vehicle: Klucel (hydroxypropylcellulose) (HPC)",110 % of control
CC(=O)C(=O)N1Cc2cc3ccccc3nc2C1,T/C,"dose: 50.0 mg/kg/injection, schedule: Q01DX001 (ip), vehicle: saline sonified",100 % of control
same,T/C,"dose: 100.0 mg/kg/injection, schedule: Q01DX001 (ip), vehicle: saline sonified",100 % of control
same,T/C,"dose: 200.0 mg/kg/injection, schedule: Q01DX001 (ip), vehicle: saline sonified",100 % of control
CC1CC(C)(C)N=C(C(C)(C)c2ccccc2)O1 (stereo unspecified),T/C,"dose: 50.0 mg/kg/injection, schedule: Q04DX003 (ip), vehicle: saline sonified",100 % of control
same,T/C,"dose: 100.0 mg/kg/injection, schedule: Q04DX003 (ip), vehicle: saline sonified",100 % of control
same,T/C,"dose: 200.0 mg/kg/injection, schedule: Q04DX003 (ip), vehicle: saline sonified",90 % of control
CCCC(C)(O)C#CC(C)(O)CCC (stereo unspecified),T/C,"dose: 12.5 mg/kg/injection, schedule: Q01DX009 (ip), vehicle: saline with Tween-80",101 % of control
same,T/C,"dose: 25.0 mg/kg/injection, schedule: Q01DX009 (ip), vehicle: saline with Tween-80",92 % of control
same,T/C,"dose: 50.0 mg/kg/injection, schedule: Q01DX009 (ip), vehicle: saline with Tween-80",93 % of control
same,T/C,[1],100 % of control
same,T/C,[2],104 % of control
same,T/C,"dose: 400.0 mg/kg/injection, schedule: Q04DX003 (ip), vehicle: saline with Tween-80",90 % of control
CCn1c(C)nc2cc(C(N)=O)ccc21,T/C,"dose: 50.0 mg/kg/injection, schedule: Q04DX003 (ip), vehicle: saline with Tween-80",95 % of control
same,T/C,[1],90 % of control
same,T/C,[2],113 % of control
c1ccc(N2CCNCC2)cc1,T/C,"dose: 6.25 mg/kg/injection, schedule: Q04DX003 (ip), vehicle: saline sonified",95 % of control
same,T/C,"dose: 12.5 mg/kg/injection, schedule: Q04DX003 (ip), vehicle: saline sonified",100 % of control
same,T/C,"dose: 25.0 mg/kg/injection, schedule: Q04DX003 (ip), vehicle: saline sonified",104 % of control
CCCCCCCCCCCC[N+]1([O-])CCCC1,T/C,[3],100 % of control
same,T/C,[4],93 % of control
same,T/C,[5],87 % of control
CC1CN=C(c2ccc(NC(=O)Nc3ccc(C(=O)Nc4ccc(C5=NCC(C)N5)cc4)cc3)cc2)N1 (stereo unspecified),T/C,"dose: 66.0 mg/kg/injection, schedule: Q04DX003 (ip), vehicle: saline with Tween-80",168 % of control and 209 % of control
same,T/C,[1],90 % of control and 222 % of control
same,T/C,"dose: 150.0 mg/kg/injection, schedule: Q04DX003 (ip), vehicle: saline with Tween-80",100 % of control
[O-][n+]1ccccc1Br,T/C,[6],91 % of control
same,T/C,[7],91 % of control
COc1ccc(CN(C)CCN(C)CCN(C)Cc2ccc(OC)cc2)cc1,T/C,"dose: 3.12 mg/kg/injection, schedule: Q01DX009 (ip), vehicle: water",92 % of control
same,T/C,"dose: 6.25 mg/kg/injection, schedule: Q01DX009 (ip), vehicle: saline",102 % of control
same,T/C,"dose: 6.25 mg/kg/injection, schedule: Q01DX009 (ip), vehicle: water",108 % of control
same,T/C,[3],103 % of control
same,T/C,"dose: 12.5 mg/kg/injection, schedule: Q01DX009 (ip), vehicle: water",99 % of control
same,T/C,[4],93 % of control
same,T/C,"dose: 25.0 mg/kg/injection, schedule: Q01DX009 (ip), vehicle: water",100 % of control
same,T/C,"dose: 25.0 mg/kg/injection, schedule: Q04DX003 (ip), vehicle: water",90 % of control
same,T/C,[5],86 % of control
same,T/C,"dose: 50.0 mg/kg/injection, schedule: Q01DX009 (ip), vehicle: water",106 % of control
same,T/C,[6],99 % of control
same,T/C,[7],96 % of control
